These are literature values, as cited in publication PMC12332767 (RSC Chemical Biology, 2025).

As to heparin [HI], the Insoluble in chloroform (HI alone) is on record as 98.5%. For the same substance, the “Soluble in chloroform in interaction with PC” value (HI in interaction with PC) is on record as 74%.
